The text below walks through data of US20230140838A9, “NOVEL ACTIVITY-BASED PROBES FOR NEUTROPHIL ELASTASE AND THEIR USE” (Takeda Pharmaceutical Company Limited, priority 2018, published 2023).

One assay concerns the target T1, neutrophil elastase (NE) (Homo sapiens, UniProt P08246).
T1 construct: purchased Elastin Products Company
T1 sequence (P08246 30-267): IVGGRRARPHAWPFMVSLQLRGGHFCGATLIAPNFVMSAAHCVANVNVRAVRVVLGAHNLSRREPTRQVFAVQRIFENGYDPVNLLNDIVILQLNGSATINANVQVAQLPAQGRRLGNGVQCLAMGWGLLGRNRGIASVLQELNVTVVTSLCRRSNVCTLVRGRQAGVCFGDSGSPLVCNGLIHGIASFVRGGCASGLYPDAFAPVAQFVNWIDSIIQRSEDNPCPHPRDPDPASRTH
As to the kind of experiment: Recombinant protease labeling / fluorescent SDS-PAGE, neutrophil elastase. In kind it is binding. Particulars: 0.1-1 μM probe.

In assay [1] the test system is serine proteases in lysates prepared from mouse pancreas. Put plainly: Ex vivo labeling of mouse pancreas lysates, in-gel fluorescence and immunoprecipitation. In kind it is binding. The method, then: (§1) Tubes were rocked overnight at 4° C.
The target of assay [2] is T2, NE (Mus musculus, UniProt Q3UP87).
T2 sequence (Q3UP87 29-247 limits assumed): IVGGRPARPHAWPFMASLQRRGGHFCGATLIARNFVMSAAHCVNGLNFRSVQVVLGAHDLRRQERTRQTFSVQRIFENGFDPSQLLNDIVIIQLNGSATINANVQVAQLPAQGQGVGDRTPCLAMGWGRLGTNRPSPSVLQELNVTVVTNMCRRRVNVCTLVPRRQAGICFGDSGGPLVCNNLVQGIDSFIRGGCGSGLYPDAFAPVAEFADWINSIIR
In kind it is binding.

The test system of assay [3] is NE. Put plainly: Ex vivo labeling of human colon mucosal biopsy lysates (ulcerative colitis vs healthy). In kind it is binding. Here is the method:
as §1
Human mucosal biopsies were obtained from individuals during colonoscopy procedures at Hotel Dieu Hospital in Kingston, Ontario, Canada (Table 1). Patients were well-characterized individuals with active ulcerative colitis (UC) or healthy individuals undergoing routine colonoscopy for cancer screening. For UC patients, biopsies were obtained from sites of active inflammation. Written and verbal consent was obtained prior to enrolment and all protocols were approved by the Queen's University Human Ethics Committee. Fresh biopsies were washed in PBS and then snap frozen for protease analysis as above.

Assay [4] has as its target T2, NE. In kind it is binding. The source holds these as a separate data set.
The test system of assay [5] is NE.
Experimental: PK105b or Cy5-V-DPP (0, 0.1, 0.5 or 1 μM) was added from a 100×DMSO stock, and reaction was left to occur at 37° C. for 30 minutes. Proteins were solubilized in 4× sample buffer (40% glycerol, 200 mM Tris-Cl [pH 6.8], 8% SDS, 0.04% bromophenol blue, 5% beta-mercaptoethanol), boiled for five minutes and resolved on a 15% SDS-PAGE gel. Probe labeling was detected by scanning the gel for Cy5 fluorescence on a Typhoon 5 flatbed laser scanner (GE Healthcare).
Bone marrow was obtained by flushing tibias and femurs from healthy C57BL/6J mice with PBS. Cells were washed and resuspended in PBS prior to sonication on ice. […] Total protein (60 μg, as measured by BCA assay, Pierce) was aliquoted in a total volume of 20 μl PBS, and probe labeling and SDS-PAGE was carried out as above.
Fluorescent Gels were Transferred to Nitrocellulose Membranes and Blotted Using the Turbo Blot system (BioRad). […] Binding was detected by scanning with the IRLong filter on a Typhoon 5 flatbed laser scanner (GE Healthcare).
PK105b-labeled lysates (boiled in sample buffer for five minutes) were divided into input and immunoprecipitation (IP) samples (100 μg each). […] Supernatants were then analyzed, alongside the input sample, by fluorescent SDS-PAGE as above. […]

Consider `CCC(NC(=O)[C@@H]1CC2CCCCC2N1C(=O)[C@H](CCS(C)(=O)=O)NC(=O)[C@H](CCCCOCc1ccccc1)NC(=O)CCCCCN1/C(=C/C=C/C=C/C2=[N+](CC)c3ccc(S(=O)(=O)[O-])cc3C2(C)C)C(C)(C)c2cc(S(=O)(=O)O)ccc21)P(=O)(Oc1ccccc1)Oc1ccccc1` (stereo partly shown) [PK105b], for which, on neutrophil elastase (NE), the “potency of NE labeling compared between probes” value is reported as “more potent than Cy5-V-DPP”. In addition, in assay [1] (0.1, 0.5 and 1 µM), the “labeling of 25-KDa proteins in mouse pancreas lysates (in-gel fluorescence)” value is reported as “strongly labeled”. The “targets of the probe identified by immunoprecipitation” value in assay [1] (labeled mouse pancreas lysates, antibodies to NE, PE, Try3) is “combination of NE, pancreatic elastase (PE), and trypsin 3”. For the same molecule, on NE [2], the “ability to detect NE activity in tissue lysates compared between probes” value is “clearly superior to Cy5-V-DPP”; the “binding to other species (off-target bands)” value is “binding to several species in the 50-75-KDa range”; the “identity of the labeled band by immunoprecipitation with NE-specific antibody” value was “confirmed to be NE”; the “labeling of the 25-KDa band in healthy distal colons and proximal regions of healthy and inflamed colons” value is recorded as “virtually absent”. Moreover, on NE [2], the “labeling of the 25-KDa species in distal colon lysates of TNBS-treated mice” value is recorded as “clear labeling of a single protein at 25-KDa” and the “species of the 25-KDa NE doublet labeled by the probe” value is listed as “Only the lower species”. Besides, the “identity of labeled bands by immunoprecipitation with NE-specific antibody” value with NE [3] (UC biopsy lysates) is “confirmed to be NE”. In addition, in the assay with NE [3] (human colon mucosal biopsies, UC n=9, normal n=5), the “labeling in active ulcerative colitis biopsies compared with healthy individuals” value was “significant increase in labeling”. Further, the “number of species labeled in human mucosal lysates” value in the assay on NE [3] (in-gel fluorescence) is reported as “three species were labeled”. In addition, at NE [4], the “identity of the major 25-KDa species by immunoblotting and immunoprecipitation” value is given as “confirmed to be NE”; the “labeling in infected lung tissue lysates compared with control lungs” value is “significantly increased”. Besides, the “labeling in tumor tissues versus normal tongue tissues” value with NE [5] (HSC-3 xenograft, two weeks) is given as “clear labeling of a 25-KDa species in tumor tissues, but not normal tongue tissues”. Further, the “labeling of other high-molecular weight species in tumor/tongue lysates” value in the assay on NE [5] (unidentified species) is recorded as “abundantly labeled”.
